biological target: T1, HDAC6 enzyme (Homo sapiens, UniProt Q9UBN7); assay: HDAC6 enzyme inhibitory activity (HDAC-Glo I/II Assay kit); assay type: biochemical; settings: 10 μM; wells without enzyme = 100% inhibition; read-out: HDAC6 inhibitory rate (%) (10 μM)
T1 construct: transducing full length HDAC6 gene into Sf-9 insect cells; GST; purchased SignalChem; host or cells: Sf-9 insect cells
T1 sequence (Q9UBN7 1-1215): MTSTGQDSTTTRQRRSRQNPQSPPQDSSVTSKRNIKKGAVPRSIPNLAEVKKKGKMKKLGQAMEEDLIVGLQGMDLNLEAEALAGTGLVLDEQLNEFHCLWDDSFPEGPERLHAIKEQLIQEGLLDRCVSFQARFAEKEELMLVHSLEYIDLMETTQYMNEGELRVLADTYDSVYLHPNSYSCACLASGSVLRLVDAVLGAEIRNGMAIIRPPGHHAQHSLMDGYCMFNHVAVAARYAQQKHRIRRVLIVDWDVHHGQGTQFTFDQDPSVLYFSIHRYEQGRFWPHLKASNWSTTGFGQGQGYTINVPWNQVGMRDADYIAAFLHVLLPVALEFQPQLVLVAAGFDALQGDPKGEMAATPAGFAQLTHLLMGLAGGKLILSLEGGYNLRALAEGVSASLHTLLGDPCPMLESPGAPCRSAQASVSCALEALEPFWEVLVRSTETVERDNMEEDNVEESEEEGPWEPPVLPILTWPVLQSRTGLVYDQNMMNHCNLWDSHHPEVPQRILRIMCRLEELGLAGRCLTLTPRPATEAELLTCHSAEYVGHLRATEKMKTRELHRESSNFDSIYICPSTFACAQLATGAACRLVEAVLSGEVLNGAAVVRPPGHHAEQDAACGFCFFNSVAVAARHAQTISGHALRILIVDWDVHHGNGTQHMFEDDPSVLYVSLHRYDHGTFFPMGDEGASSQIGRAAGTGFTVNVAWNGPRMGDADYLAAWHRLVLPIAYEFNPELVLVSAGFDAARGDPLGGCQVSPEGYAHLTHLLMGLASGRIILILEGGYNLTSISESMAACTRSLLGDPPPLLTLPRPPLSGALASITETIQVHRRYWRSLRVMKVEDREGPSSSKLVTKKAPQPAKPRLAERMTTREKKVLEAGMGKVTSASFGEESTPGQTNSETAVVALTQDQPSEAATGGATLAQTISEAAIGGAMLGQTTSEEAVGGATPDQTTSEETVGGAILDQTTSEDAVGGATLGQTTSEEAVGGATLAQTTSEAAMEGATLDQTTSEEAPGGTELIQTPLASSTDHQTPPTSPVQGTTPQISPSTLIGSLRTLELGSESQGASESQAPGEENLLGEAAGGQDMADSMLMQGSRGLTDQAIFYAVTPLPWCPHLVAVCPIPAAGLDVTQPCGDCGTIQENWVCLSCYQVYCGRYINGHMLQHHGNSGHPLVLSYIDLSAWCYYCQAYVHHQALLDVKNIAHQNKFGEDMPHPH
How it was run: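 Inhibition is calculated as relative activity, taking luminescence in enzyme-free wells as complete inhibition. The enzyme, full-length and GST-purified after Sf-9 expression, was exposed to compound for 60 min at room temperature before a 20 min HDAC-Glo reaction.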

| inhibition at 10 µM | SMILES |
| --- | --- |
| 101% | CCC1(C(=O)N[C@@H]2CCCC[C@H]2N2Cc3ccc(-c4nnc(C(F)F)o4)cc3C2=O)COC1 [Example 92, N-((1R,2R)-2-(6-(5-(difluoromethyl)-1,3,4-oxadiazol-2-yl)-1-oxo-1,3-dihydro-2H-isoindol-2-yl)cyclohexyl)-3-ethyloxetane-3-carboxamide] |
| 100% | O=C(N[C@@H]1CCCC[C@H]1N1Cc2ccc(-c3nnc(C(F)F)o3)cc2C1=O)[C@@H]1CCCO1 [Example 93, (2S)-N-((1R,2R)-2-(6-(5-(difluoromethyl)-1,3,4-oxadiazol-2-yl)-1-oxo-1,3-dihydro-2H-isoindol-2-yl)cyclohexyl)tetrahydrofuran-2-carboxamide] |
| 100% | O=C(N[C@@H]1CCCC[C@H]1N1Cc2ccc(-c3nnc(C(F)F)o3)cc2C1=O)[C@@H]1CCOC1 [Example 94] |
| 96% | O=C(N[C@@H]1CCCC[C@H]1N1Cc2ccc(-c3nnc(C(F)F)o3)cc2C1=O)C1CCOCC1 [Example 95, N-((1R,2R)-2-(6-(5-(difluoromethyl)-1,3,4-oxadiazol-2-yl)-1-oxo-1,3-dihydro-2H-isoindol-2-yl)cyclohexyl)tetrahydro-2H-pyran-4-carboxamide] |
| 98% | Cn1cncc1C(=O)N[C@@H]1CCCC[C@H]1N1Cc2ccc(-c3nnc(C(F)F)o3)cc2C1=O [Example 96, N-((1R,2R)-2-(6-(5-(difluoromethyl)-1,3,4-oxadiazol-2-yl)-1-oxo-1,3-dihydro-2H-isoindol-2-yl)cyclohexyl)-1-methyl-1H-imidazole-5-carboxamide] |
| 100% | Cn1cc(C(=O)N[C@@H]2CCCC[C@H]2N2Cc3ccc(-c4nnc(C(F)F)o4)cc3C2=O)cn1 [Example 97, N-((1R,2R)-2-(6-(5-(difluoromethyl)-1,3,4-oxadiazol-2-yl)-1-oxo-1,3-dihydro-2H-isoindol-2-yl)cyclohexyl)-1-methyl-1H-pyrazole-4-carboxamide] |
| 101% | O=C(N[C@@H]1CCCC[C@H]1N1Cc2ccc(-c3nnc(C(F)F)o3)cc2C1=O)c1ccccc1 [Example 98, N-((1R,2R)-2-(6-(5-(difluoromethyl)-1,3,4-oxadiazol-2-yl)-1-oxo-1,3-dihydro-2H-isoindol-2-yl)cyclohexyl)benzamide] |
| 100% | O=C(N[C@@H]1CCCC[C@H]1N1Cc2ccc(-c3nnc(C(F)F)o3)cc2C1=O)c1ccccc1Cl [Example 99, 2-chloro-N-((1R,2R)-2-(6-(5-(difluoromethyl)-1,3,4-oxadiazol-2-yl)-1-oxo-1,3-dihydro-2H-isoindol-2-yl)cyclohexyl)benzamide] |
| 100% | O=C(N[C@@H]1CCCC[C@H]1N1Cc2ccc(-c3nnc(C(F)F)o3)cc2C1=O)c1cccc(Cl)c1 [Example 100, 3-chloro-N-((1R,2R)-2-(6-(5-(difluoromethyl)-1,3,4-oxadiazol-2-yl)-1-oxo-1,3-dihydro-2H-isoindol-2-yl)cyclohexyl)benzamide] |
| 99% | O=C(N[C@@H]1CCCC[C@H]1N1Cc2ccc(-c3nnc(C(F)F)o3)cc2C1=O)c1ccc(Cl)cc1 [Example 101, 4-chloro-N-((1R,2R)-2-(6-(5-(difluoromethyl)-1,3,4-oxadiazol-2-yl)-1-oxo-1,3-dihydro-2H-isoindol-2-yl)cyclohexyl)benzamide] |
| 96% | O=C(N[C@@H]1CCCC[C@H]1N1Cc2ccc(-c3nnc(C(F)F)o3)cc2C1=O)C1CCC(F)(F)CC1 [Example 102, N-((1R,2R)-2-(6-(5-(difluoromethyl)-1,3,4-oxadiazol-2-yl)-1-oxo-1,3-dihydro-2H-isoindol-2-yl)cyclohexyl)-4,4-difluorocyclohexanecarboxamide] |
| 98% | C[C@](O)(C(=O)N[C@@H]1CCCC[C@H]1N1Cc2ccc(-c3nnc(C(F)F)o3)cc2C1=O)C(F)(F)F [Example 103, (2S)-N-((1R,2R)-2-(6-(5-(difluoromethyl)-1,3,4-oxadiazol-2-yl)-1-oxo-1,3-dihydro-2H-isoindol-2-yl)cyclohexyl)-3,3,3-trifluoro-2-hydroxy-2-methylpropanamide] |
| 97% | C[C@@](O)(C(=O)N[C@@H]1CCCC[C@H]1N1Cc2ccc(-c3nnc(C(F)F)o3)cc2C1=O)C(F)(F)F [Example 104, (2R)-N-((1R,2R)-2-(6-(5-(difluoromethyl)-1,3,4-oxadiazol-2-yl)-1-oxo-1,3-dihydro-2H-isoindol-2-yl)cyclohexyl)-3,3,3-trifluoro-2-hydroxy-2-methylpropanamide] |
| 98% | O=C(N[C@@H]1CCCC[C@H]1N1Cc2ccc(-c3nnc(C(F)F)o3)cc2C1=O)c1ccccn1 [Example 105, N-((1R,2R)-2-(6-(5-(difluoromethyl)-1,3,4-oxadiazol-2-yl)-1-oxo-1,3-dihydro-2H-isoindol-2-yl)cyclohexyl)pyridine-2-carboxamide] |
| 99% | CC(C)(F)C(=O)N[C@@H]1CCCC[C@H]1N1Cc2ccc(-c3nnc(C(F)F)o3)cc2C1=O [Example 106, N-((1R,2R)-2-(6-(5-(difluoromethyl)-1,3,4-oxadiazol-2-yl)-1-oxo-1,3-dihydro-2H-isoindol-2-yl)cyclohexyl)-2-fluoro-2-methylpropanamide] |
| 102% | CCCCCCC(=O)N[C@@H]1CCCC[C@H]1N1Cc2ccc(-c3nnc(C(F)F)o3)cc2C1=O [Example 107, N-((1R,2R)-2-(6-(5-(difluoromethyl)-1,3,4-oxadiazol-2-yl)-1-oxo-1,3-dihydro-2H-isoindol-2-yl)cyclohexyl)heptanamide] |
| 100% | O=C1c2cc(-c3nnc(C(F)F)o3)ccc2CN1[C@@H]1CCCC[C@H]1NC(=O)C1(c2ccc(F)cc2)CC1 [Example 108, N-((1R,2R)-2-(6-(5-(difluoromethyl)-1,3,4-oxadiazol-2-yl)-1-oxo-1,3-dihydro-2H-isoindol-2-yl)cyclohexyl)-1-(4-fluorophenyl)cyclopropanecarboxamide] |
| 97% | O=C1c2cc(-c3nnc(C(F)F)o3)ccc2CN1[C@@H]1CCCC[C@H]1NC(=O)C1(c2ccc(F)cc2)CCC1 [Example 109, N-((1R,2R)-2-(6-(5-(difluoromethyl)-1,3,4-oxadiazol-2-yl)-1-oxo-1,3-dihydro-2H-isoindol-2-yl)cyclohexyl)-1-(4-fluorophenyl)cyclobutanecarboxamide] |
| 98% | O=C(CC1CCC1)N[C@@H]1CCCC[C@H]1N1Cc2ccc(-c3nnc(C(F)F)o3)cc2C1=O [Example 110, 2-cyclobutyl-N-((1R,2R)-2-(6-(5-(difluoromethyl)-1,3,4-oxadiazol-2-yl)-1-oxo-1,3-dihydro-2H-isoindol-2-yl)cyclohexyl)acetamide] |
| 95% | O=C1c2cc(-c3nnc(C(F)F)o3)ccc2CN1c1ccccc1Br [Example 112, 2-(2-bromophenyl)-6-(5-(difluoromethyl)-1,3,4-oxadiazol-2-yl)isoindolin-1-one] |
| 102% | O=C(N[C@@H]1CCCC[C@H]1N1Cc2ccc(-c3nnc(C(F)F)o3)cc2C1=O)[C@H]1CCCO1 [Example 113, (2R)-N-((1R,2R)-2-(6-(5-(difluoromethyl)-1,3,4-oxadiazol-2-yl)-1-oxo-1,3-dihydro-2H-isoindol-2-yl)cyclohexyl)tetrahydrofuran-2-carboxamide] |

— US10435399B2, “HDAC6 inhibitory heterocyclic compound” (TAKEDA PHARMACEUTICAL COMPANY LIMITED, priority 2017, dated 2019)
